Consider 3 molecules from paper PMC4494942, “Sorafenib and DE605, a novel c-Met inhibitor, synergistically suppress hepatocellular carcinoma” (Oncotarget, 2015).

Assay [1] deals with MHCC97H human HCC xenograft model and HuPrime model with human HCC explants. The settings on record: cited from earlier work.
In assay [2] the test system is PLC/PRF/5 cells. Kind of assay: MTT cell viability assay, PLC/PRF/5. The assay is classed as cell-based, human. The settings on record: PLC/PRF/5, 72 h.
Description: (§1) Cells were seeded in 96-well plates (3,000 cells/well) and incubated overnight for attachment, and were then treated with indicated agents in 10% FBS-supplemented medium for 72 hours. The medium was replaced with MTT (0.5 mg/ml) at 37°C for 2 hours. After removal of medium, the cells were lysed with 200 μl per well dimethyl sulfoxide (DMSO), and absorbance at 570 nm was measured and the values of 50% inhibition concentration (IC50) for each drug were determined. Cell viability was evaluated by measuring the optical density at 570 nm using an Automated Microplate Reader (Bio-Tek, USA). The percentage of viable cells was calculated using the following formula: cell viability (%) = (OD of treated cells/OD of control cells) × 100. All assays were performed in triplicate with at least 3 independent experiments.
The subject of a further assay is HepG2 cells. Kind of assay: MTT cell viability assay, HepG2. The format is cell-based. To be noted: Homo sapiens, HepG2, 72 h. For orientation: Formazan colour is commonly taken as a measure of viable cells.
A further assay has as its system HuH7 cells. Kind of assay: MTT cell viability assay, HuH7. The assay is classed as cell-based. The settings on record: Homo sapiens, Huh-7, HuH7, 72 h.
In assay [3] the test system is PLC/PRF/5 cells. Kind of assay: cell-cycle distribution by flow cytometry. The format is cell-based, human. To be noted: PLC/PRF/5, 72 h, single agent. On the procedure: As sorafenib and c-Met inhibitors reportedly induce apoptosis in cancer cells, we examined the impact of our drug combination on programmed cell death. First, the effect of co-administration of DE605 and sorafenib on cell-cycle distribution was analyzed by flow cytometric analysis.
Figure 3 Effects of sorafenib in combination with DE605 on cell-cycle progression in PLC/PRF/5 cells (A) PLC/PRF/5 cells were treated with the indicated drugs for 72 hours, and cell-cycle distribution was analyzed by flow cytometry. (B) Statistical analysis of sub-G1 phase in PLC/PRF/5 cells exposed to DMSO, sorafenib alone, DE605 alone, or in sorafenib/DE605 combination. Data, mean ± SD (n = 3).
After drug treatment, the cells were harvested by trypsinization, washed with PBS, then pellets were resuspended and fixed in ethanol (70%, v/v) at −20°C overnight, and washed once with PBS. After centrifugation, the cells were incubated for 15 minutes at room temperature in 0.1 ml of phosphate-citric acid buffer. Cells were stained with propidium iodide staining buffer containing Triton X-100 (0.1%, v/v), RNase A (100 μg/ml), and propidium iodide (80 μg/ml) for 30 minutes in the dark. Cell-cycle distribution was analyzed by flow cytometry with CellQuest software (Becton Dickinson).
(A flow cytometer gives signals particle by particle.)

The next assay has as its system Hep3B cells. Kind of assay: MTT cell viability assay, Hep3B. The settings on record: Homo sapiens, 72 h, read-out: cell viability IC50.
Assay [4] has as its system PLC/PRF/5 tumor xenografts. Kind of assay: PLC/PRF/5 tumor xenograft model. To be noted: oral, qd, 28 days; sorafenib 60 mg/kg, DE605 80 mg/kg; versus control group.
Description: (B) body weights were measured twice per week, and are expressed as mean ± SD. (C-D) IHC analysis of intratumoral proliferation in PLC/PRF/5 xenograft tumors. Tumors were harvested and paraffin-embedded tumor tissues were subjected to immunostaining for Ki-67 (C) and TUNEL (D). Images were captured by Zeiss Axioskop-2 microscope under 200× magnification. Scale bar, 100 μm.
All surgery was performed under sodium pentobarbital anesthesia, and all efforts were made to minimize suffering. Female athymic nude mice of 4–5 weeks of age were purchased from Shanghai SLAC Laboratory Animal Co., Ltd. (Shanghai, China) and were housed in the Animal Resource Facility. […] Tumors were monitored twice weekly. As previously described [54], tumor size was measured on two axes with the aid of Vernier calipers and tumor volume (mm^3) was calculated using the formula: 1/2(L × W^2) where L is the longest and W is the shortest axis. […] For tumor growth inhibition (TGI), the antitumor effects are calculated by dividing the tumor volumes from treatment groups by those of the control groups and multiplied by 100. […]
The type of cell death (necrosis/apoptosis) was evaluated by the terminal deoxynucleotidyl transferase-mediated deoxyuridine biotin nick-end labeling (TUNEL) assay with an Apo-Direct kit (Pharmingen, San Diego, CA) as previously reported [55]. […]

Description for Hep3B cells: as §1
Description for HepG2 cells: as §1
Description for HuH7 cells: as §1

Regarding `CN1CCC(COc2cnc(-c3cccc(Cn4nc(-c5cccc(C#N)c5)ccc4=O)c3)nc2)CC1` [MSC2156119J], the “efficacy of combination with sorafenib” value in assay [1] is “did not improve efficacy”.

As for `O=C1NC(=O)[C@@H](c2cn3c4c(cccc24)CCC3)[C@@H]1c1c[nH]c2ccccc12` [tivantinib], in the assay with PLC/PRF/5 cells [2] (tivantinib 0.25 and 0.5 μM in combination with sorafenib), the “interaction with sorafenib on cell viability (combination index)” value is “synergistic effect”.

For orientation: IC50 means the concentration needed to halve the response being measured. As to `CNC(=O)c1cc(Oc2ccc(NC(=O)Nc3ccc(Cl)c(C(F)(F)F)c3)cc2)ccn1` [sorafenib], the half-maximal inhibitory concentration (IC50) amounted to 6.7 µM with PLC/PRF/5 cells [2] (Homo sapiens, MTT); 3.3 µM with HepG2 cells; 2.4 µM in the assay with HuH7 cells; 10.5 µM with Hep3B cells. Further, the cell-cycle arrest entry in the assay on PLC/PRF/5 cells [3] is “no appreciable cell-cycle arrest”. The “tumor growth inhibition (TGI)” value in assay [4] amounted to 17.3%.
